The values that follow are results of earlier work, collected in US9884129B2, “Release of agents from cells” (The Brigham and Women s Hospital, Inc., priority 2009, dated 2018).

SMILES strings stand for the structures.

The series deals with tumor. The following applies: with neural stem cells modified to produce cytosine deaminase; systemic prodrug.

For `Nc1nc(=O)[nH]cc1F` [5-fluorocytosine], the “reduction in tumor mass” value is given as 80%.
